Patent EP2545917B1, “NOVEL EP4 AGONIST” (Kaken Pharmaceutical Co., Ltd., priority 2010, dated 2011)

Columns and labels:
[1] = tested on: dextran sodium sulfate-induced colitis; test: Therapeutic effect on remission/relapse model of dextran sodium sulfate-induced colitis in mice; format: in vivo, BALB/c mice
Source text: Next, therapeutic effect of compound F on colitis was studied in a chronic model. Female BALB/c mice, 6 weeks old, body weight about 20 g (Japan SLC) were purchased, acclimated for 1 week and used for the study. The mice were divided into a colitis induction group and a normal group. The colitis induction group was allowed to freely drink a 2.6 w/v% DSS (MP Biochemicals, M.W. 36,000- 50,000, Lot No. 4556J) solution to induce colitis. On day 8 when the stool score (defined in Example 23) of the colitis induction group reached about 4.5, the mice were subdivided into a control group, a compound F 1 mg/kg administration group and a salazosulfapyridine (SIGMA, Lot No. 085K1930, hereinafter to be abbreviated as SASP) 100 mg/kg administration group. Then the mice were allowed to freely drink distilled water instead of DSS solution for 9 days (remission period). After the grouping, the stool score was evaluated every 3 - 4 days. When the score of the control group reached about 1, the mice were again allowed to drink the DSS solution to cause a relapse (relapse period). The periods of remission and relapse were taken as 1 cycle and the cycle was repeated 5 times. As for the 5th cycle, however, only the remission period was performed.
Compound F at a dose of 1 mg/kg and SASP at a dose of 100 mg/kg were orally administered once a day, daily, for 50 days from the initial remission period (day 8 from the start of 2.6 w/v% DSS drinking) to the fifth remission period (day 57 from the start of 2.6 w/v% DSS drinking). To the control group was orally administered a solvent (1 vol% ethanol solution) at 10 mL/kg. If a mouse had score 0 of both stool consistency score and occult blood score on the last day of each remission period, the mouse was regarded as "in remission". The remission ratio (%) was calculated as a ratio of mice in remission in each group. Eight to 10 mice were used for each group and the results are shown in average value.

[2] = tested on: CD4+CD25- T cell transfer colitis; test: Prophylactic effect on CD4+CD25- T cell transfer colitis model in mice; format: in vivo, C.B-17/Icr-scid mice; details: scid mice, oral 1 mg/kg once a day for 20 days
Procedure: Female BALB/cA Jcl mice, 6 weeks old, body weight 19 - 23 g (CLEA Japan, Inc.) and female C.B-17/Icr-scid mice (6 weeks old, CLEA Japan, Inc.) were purchased, acclimated for 1 week and used for the study. After laparotomy under ether anesthesia, BALB/cA Jcl mice were exsanguinated to death through the abdominal aorta and caudal vena cava, and the spleen was isolated. Splenocytes were prepared from the spleen and then CD4^+CD25^- T cells were prepared with a CD4^+ T cell Isolation Kit (No. 130-090-860, Milky Biotech Co., Ltd.) and CD25-Biotin antibody (No. 130-092-569, Milky Biotech Co., Ltd.). The cells were separated using the autoMACS Separator (Milky Biotech Co., Ltd.). The separated CD4^+CD25^- T cells were suspended in physiological phosphate buffer solution, and 2.5×10^5 cells per animal were intraperitoneally administered to C.B-17/Icr-scid mice to induce colitis. […] To the control group was orally administered a solvent (1 vol% ethanol solution) at 10 mL/kg. […] The fecal occult blood score was evaluated in the same manner as in Example 23. […] Eight to 10 mice were used for each group and the results were expressed as average.

[3] = tested on: intraocular pressure; test: Effect on intraocular pressure in rabbits; format: in vivo, Japanese white rabbits; details: 0.01 w/v% solution, 50 µL/eye
Procedure: Japanese white rabbits (male, 10 weeks old, BIOTEC Co., Ltd.) were purchased, acclimated for 1 week and used for the study. Compound F solution (0.01 w/v%) was instilled once into the cornea of both eyes at a volume of 50 µL/eye with a micropipette. The intraocular pressure of the right eye was measured and the local irritative effect on the eye was evaluated using the left eye. After surface anesthesia with oxybupranol (Benoxil 0.4% instillation solution), the intraocular pressure was measured before ocular instillation ) and 1, 2, 3, 4, 6 and 8 hr after the instillation using a pneumatonometer (Alcon Ltd.). In addition, the local irritative effect on the eye was evaluated by scoring conjunctival congestion, conjunctival edema, cornea opacity, iris congestion, excretion and eye closure performance. For the evaluation, phosphate buffer was used for the solvent control group, and isopropyl unoprostone (Rescula eye drops, Santen Pharmaceutical Co., Ltd.) was used for comparison. Six animals were used for each group and the results were expressed as average.

[4] = tested on: indomethacin-induced small intestinal injury; test: Indomethacin-induced small intestinal injury model in rats; format: in vivo, SD rats
Procedure: Male SD rats, 7 weeks old (Charles River) were purchased, acclimated for 1 week and used for the study. The rats were grouped based on the body weight and subcutaneously ) administered with indomethacin (SIGMA, Lot No. 19F0018) at 15 mg/5 mL/kg to all groups to induce small intestinal injury. Compound F at doses of 0.01, 0.1 and 1 mg/kg was orally administered at a volume of 5 mL/kg 30 min before and 6 hr after the subcutaneous administration of indomethacin. To the control group was orally administered a solvent (1 vol% ethanol solution) at 5 mL/kg in the same manner. Eight animals were used for each group.
The rats were intravenously administered with 2 mL of 10 mg/mL Evans blue solution under ether anesthesia 23.5 hr after the indomethacin administration. After 30 min, the rats were bled to death from the abdominal aorta and caudal vena cava under ether anesthesia and the small intestine was isolated. The isolated small intestine was filled with an adequate amount (about 35 mL) of 2 vol% neutral formalin solution, and fixed for about 15 min. Thereafter, the total small intestine was incised along the mesenteric attachment site, and extended on a vinyl chloride board. The length and width of each ulcer were measured under a stereomicroscope, the area was calculated, and the sum thereof was taken as the total ulcer area.

[5] = mice, oral once a day, Compound F 1 mg/kg, SASP 100 mg/kg

Cc1cccc([C@@H](C)[C@H](O)/C=C/[C@@H]2[C@@H]3[C@H](C[C@H]2O)O/C(=C\CCCc2nnn[nH]2)C3(F)F)c1 [Compound F, 4-[(Z)-(1S,5R,6R,7R)-6-[(1E,3R,4R)-3-hydroxy-4-(m-tolyl)-1-pentenyl]-7-hydroxy-2-oxa-4,4-difluoro-bicyclo[3.3.0]octan-3-ylidene]-1-(tetrazol-5-yl)butane]
Remission Ratio Average ([1]; average of 5 remission periods, Compound F 1 mg/kg, SASP 100 mg/kg): 66.0% | remission ratio in any remission period ([1]; mice, oral 1 mg/kg once a day): not less than 60% | effect on stool score in remission and relapse periods ([1]; mice, oral once a day for 50 days, compound F 1 mg/kg, SASP 100 mg/kg): decreased the stool score early in the remission period, and suppressed an increase in the score in the relapse period | Remission Ratio Cycle 1 [1, 5]: 60.0% | Remission Ratio Cycle 2 [1, 5]: 80.0% | Remission Ratio Cycle 3 [1, 5]: 70.0% | Remission Ratio Cycle 4 [1, 5]: 60.0% | Remission Ratio Cycle 5 [1, 5]: 60.0% | DAI score [2]: comprehensively superior to prednisolone | effect on body weight decrease score [2]: prevented the increase in the body weight decrease score almost completely | decrease in intraocular pressure ([3]; 1 hr after the instillation): 6.9 mmHg | decrease in intraocular pressure ([3]; 2 hr after the instillation): 9.3 mmHg | decrease in intraocular pressure ([3]; 6 hr after the instillation): 6.6 mmHg | effect on total ulcer area in the small intestine ([4]; oral 1 mg/kg 30 min before and 6 hr after indomethacin): completely reduced the area | effect on total ulcer area in the small intestine ([4]; oral 0.01, 0.1 and 1 mg/kg 30 min before and 6 hr after indomethacin): significantly reduced the ulcer area in a dose-dependent manner from a dose of 0.1 mg/kg administration
